Measurements from patent US10266560B2, “Bile acid analogs as FXR/TGR5 agonists and methods of use thereof” (Enanta Pharmaceuticals, Inc., priority 2014, dated 2019).
Where two headings read alike, the source gives them in different places.

Target: Human FXR (NR1H4) (Homo sapiens (Human), UniProt Q96RI1)
Experiment: Human FXR (NR1H4) Assay (Gal4 promoter driven luciferase reporter transactivation in CHO cells)
Assay type: cell-based
Excerpt: Assays Human FXR (NR1H4) Assay
Determination of a ligand mediated Gal4 promoter driven transactivation to quantify ligand binding mediated activation of FXR. FXR Reporter Assay kit purchased from Indigo Bioscience (Catalogue number: IB00601) to determine the potency and efficacy of compound developed by Enanta that can induce FXR activation. The principle application of this reporter assay system is to quantify functional activity of human FXR. The assay utilizes non-human mammalian cells, CHO (Chinese hamster ovary) cells engineered to express human NR1H4 protein (referred to as FXR). Reporter cells also incorporate the cDNA encoding beetle luciferase which catalyzes the substrates and yields photon emission. Luminescence intensity of the reaction is quantified using a plate-reading luminometer, Envision. Reporter Cells include the luciferase reporter gene functionally linked to an FXR responsive promoter. Thus, quantifying changes in luciferase expression in the treated reporter cells provides a sensitive surrogate measure of the changes in FXR activity. […] The assay is according to the manufacturer's instructions. In brief, the assay was performed in white, 96 well plates using final volume of 200 ul containing cells with different doses of compounds. Retrieve Reporter Cells from −80° C. storage. Perform a rapid thaw of the frozen cells by transferring a 10 ml volume of 37° C. cell recovery medium into the tube of frozen cells. Recap the tube of Reporter Cells and immediately place it in a 37° C. water bath for 5-10 minutes. Retrieve the tube of Reporter Cell Suspension from the water bath. Sanitize the outside surface of the tube with a 70% alcohol swab, and then transfer it into the cell culture hood. Dispense 100 μl of cell suspension into each well of the 96-well Assay Plate. Transfer the plate into 37° C. incubator, allowing the cells adherent to the bottom of the well. Dilute compounds in Dilution Plate (DP), and administrate to cells at Assay Plate (AP). DMSO content of the samples was kept at 0.2%. Cells were incubated for additional 22 hours before luciferase activities were measured. Thirty minutes before intending to quantify FXR activity, remove Detection Substrate and Detection Buffer from the refrigerator and place them in a low-light area so that they may equilibrate to room temperature. Remove the plate's lid and discard all media contents by ejecting it into an appropriate waste container. Gently tap the inverted plate onto a clean absorbent paper towel to remove residual droplets. Cells will remain tightly adhered to well bottoms. Add 100 μl of luciferase detection reagent to each well of the assay plate. Allow the assay plate to rest at room temperature for at least 5 minutes following the addition of LDR. Set the instrument (Envision) to perform a single 5 second “plate shake” prior to reading the first assay well. Read time may be 0.5 second (500 mSec) per well.

[1] = FXR agonistic potency range; CHO reporter cells expressing human NR1H4, 22 hours incubation; read-out: EC50
[2] = efficacy normalized to chenodeoxycholic acid (CDCA) set as 100%

Human FXR (NR1H4), sequence (Q96RI1 whole entry, the tested form may be a part): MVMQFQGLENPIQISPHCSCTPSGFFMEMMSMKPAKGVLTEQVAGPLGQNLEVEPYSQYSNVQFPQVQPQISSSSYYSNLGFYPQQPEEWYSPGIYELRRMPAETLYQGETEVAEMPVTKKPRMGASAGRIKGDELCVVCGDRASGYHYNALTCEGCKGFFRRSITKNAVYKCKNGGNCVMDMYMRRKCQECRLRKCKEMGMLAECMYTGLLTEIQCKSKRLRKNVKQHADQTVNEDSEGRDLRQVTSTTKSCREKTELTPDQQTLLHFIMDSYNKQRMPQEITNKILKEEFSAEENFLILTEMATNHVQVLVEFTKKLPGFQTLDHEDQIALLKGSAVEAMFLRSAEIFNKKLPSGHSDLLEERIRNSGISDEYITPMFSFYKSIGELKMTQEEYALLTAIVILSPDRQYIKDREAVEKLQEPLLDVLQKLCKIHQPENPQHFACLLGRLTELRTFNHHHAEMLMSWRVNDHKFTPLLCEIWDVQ

SMILES | Emax (CHO; read-out: Efficacy (%)) | EC50 (read-out: EC50) | EC50 [1] | Efficacy (%) [2] | Emax (CHO, read-out: Efficacy (%))
CC[C@@H]1C2C[C@H](O)CCC2(C)[C@H]2CCC3(C)C([C@H](C)CCC(=O)NS(=O)(=O)c4cc(F)cc(F)c4)CC[C@H]3[C@@H]2[C@@H]1O (stereo partly drawn) [Example 464] | 293% | 100 to 1000 nM |  |  | 
CC[C@H]1[C@@H](O)[C@@H]2[C@H](CC[C@]3(C)[C@@H]([C@H](C)CCCC(=O)NS(=O)(=O)C4CC4)CC[C@@H]23)[C@@]2(C)CC[C@@H](O)C[C@@H]12 [Example 490] | 223% | 100 to 1000 nM |  |  | 
CC[C@@H]1C2C[C@H](O)CCC2(C)[C@H]2CCC3(C)C([C@H](C)CCC(=O)NS(=O)(=O)c4cccs4)CC[C@H]3[C@@H]2[C@@H]1O (stereo partly drawn) [Example 467] | 315% | 100 to 1000 nM |  |  | 
CCC1C(O)C2C3CCC(C(C)CCC(=O)NS(=O)(=O)C(C)(C)C)C3(C)CCC2C2(C)CCC(O)CC12 (stereo not drawn) [Example 5] |  |  | < 100 nM | 218% | 
CCC1C(O)C2C3CCC(C(C)CCC(=O)NS(=O)(=O)c4ccccc4[N+](=O)[O-])C3(C)CCC2C2(C)CCC(O)CC12 (stereo not drawn) [Example 23] |  |  | 100 to 1000 nM | 280% | 
CC[C@@H]1C2C[C@H](O)CCC2(C)[C@H]2CCC3(C)C([C@H](C)CCC(=O)NS(=O)(=O)c4cccc(Cl)c4)CC[C@H]3[C@@H]2[C@@H]1O (stereo partly drawn) [Example 479] |  |  | < 100 nM |  | 572%
CCC1C(O)C2C3CCC(C(C)CCC(=O)NS(=O)(=O)N4CCOCC4)C3(C)CCC2C2(C)CCC(O)CC12 (stereo not drawn) [Example 16] |  |  | 1000 to 10000 nM | 219% | 
C=CCS(=O)(=O)NC(=O)CCC(C)C1CCC2C3C(O)C(CC)C4CC(O)CCC4(C)C3CCC12C (stereo not drawn) [Example 9] |  |  | 100 to 1000 nM | 248% | 
CC[C@@H]1C2C[C@H](O)CCC2(C)[C@H]2CCC3(C)C([C@H](C)CCC(=O)NS(=O)(=O)c4ccc(OC(F)(F)F)cc4)CC[C@H]3[C@@H]2[C@@H]1O (stereo partly drawn) [Example 473] |  |  | < 100 nM |  | 606%
CCC1C(O)C2C3CCC(C(C)CCC(=O)NS(=O)(=O)Cc4ccccc4)C3(C)CCC2C2(C)CCC(O)CC12 (stereo not drawn) [Example 7] |  |  | 1000 to 10000 nM | 178% | 
CCC1C(O)C2C3CCC(C(C)CCC(=O)NS(=O)(=O)c4ccccc4N)C3(C)CCC2C2(C)CCC(O)CC12 (stereo not drawn) [Example 19] |  |  | 100 to 1000 nM | 176% | 
CC[C@@H]1C2C[C@H](O)CCC2(C)[C@H]2CCC3(C)C([C@H](C)CCC(=O)NS(=O)(=O)c4ccc(OC)c(OC)c4)CC[C@H]3[C@@H]2[C@@H]1O (stereo partly drawn) [Example 478] | 589% | 100 to 1000 nM |  |  | 
CC[C@@H]1C2C[C@H](O)CCC2(C)[C@H]2CCC3(C)C([C@H](C)CCC(=O)NS(=O)(=O)c4ccc5c(c4)OCO5)CC[C@H]3[C@@H]2[C@@H]1O (stereo partly drawn) [Example 481] |  |  | < 100 nM |  | 359%
CC[C@@H]1C2C[C@H](O)CCC2(C)[C@H]2CCC3(C)C([C@H](C)CCC(=O)NS(=O)(=O)c4cccc(OC)c4)CC[C@H]3[C@@H]2[C@@H]1O (stereo partly drawn) [Example 477] |  |  | < 100 nM |  | 596%
CCC1C(O)C2C3CCC(C(C)CCC(=O)NS(=O)(=O)C4CC4)C3(C)CCC2C2(C)CCC(O)CC12 (stereo not drawn) [Example 11] |  |  | 100 to 1000 nM | 315% | 
CC[C@H]1[C@@H](O)[C@@H]2[C@H](CC[C@]3(C)[C@@H]([C@H](C)CCCC(=O)NS(=O)(=O)C4(C)CC4)CC[C@@H]23)[C@@]2(C)CC[C@@H](O)C[C@@H]12 [Example 492] | 226% | 100 to 1000 nM |  |  | 
CC[C@H]1[C@@H](O)[C@@H]2[C@H](CC[C@]3(C)[C@@H]([C@H](C)CCC(=O)N(C)S(=O)(=O)c4ccccc4)CC[C@@H]23)[C@@]2(C)CC[C@@H](O)C[C@@H]12 [Example 489] | 231% | 1000 to 10000 nM |  |  | 
CC[C@H]1[C@@H](O)[C@@H]2[C@H](CC[C@]3(C)[C@@H]([C@H](C)CCC(=O)NS(C)(=O)=O)CC[C@@H]23)[C@@]2(C)CC[C@@H](O)C[C@@H]12 [Example 1] | 254% | 100 to 1000 nM |  |  | 
